The target of experiment [1] is T1, Human Progestin Receptor in T47-D Cells (Homo sapiens, UniProt P06401).
T1 construct: The human breast carcinoma (T-47D) cell line was used to assess RBA for progestin receptor; host or cells: T-47D human breast carcinoma cells
T1 sequence (P06401 1-933): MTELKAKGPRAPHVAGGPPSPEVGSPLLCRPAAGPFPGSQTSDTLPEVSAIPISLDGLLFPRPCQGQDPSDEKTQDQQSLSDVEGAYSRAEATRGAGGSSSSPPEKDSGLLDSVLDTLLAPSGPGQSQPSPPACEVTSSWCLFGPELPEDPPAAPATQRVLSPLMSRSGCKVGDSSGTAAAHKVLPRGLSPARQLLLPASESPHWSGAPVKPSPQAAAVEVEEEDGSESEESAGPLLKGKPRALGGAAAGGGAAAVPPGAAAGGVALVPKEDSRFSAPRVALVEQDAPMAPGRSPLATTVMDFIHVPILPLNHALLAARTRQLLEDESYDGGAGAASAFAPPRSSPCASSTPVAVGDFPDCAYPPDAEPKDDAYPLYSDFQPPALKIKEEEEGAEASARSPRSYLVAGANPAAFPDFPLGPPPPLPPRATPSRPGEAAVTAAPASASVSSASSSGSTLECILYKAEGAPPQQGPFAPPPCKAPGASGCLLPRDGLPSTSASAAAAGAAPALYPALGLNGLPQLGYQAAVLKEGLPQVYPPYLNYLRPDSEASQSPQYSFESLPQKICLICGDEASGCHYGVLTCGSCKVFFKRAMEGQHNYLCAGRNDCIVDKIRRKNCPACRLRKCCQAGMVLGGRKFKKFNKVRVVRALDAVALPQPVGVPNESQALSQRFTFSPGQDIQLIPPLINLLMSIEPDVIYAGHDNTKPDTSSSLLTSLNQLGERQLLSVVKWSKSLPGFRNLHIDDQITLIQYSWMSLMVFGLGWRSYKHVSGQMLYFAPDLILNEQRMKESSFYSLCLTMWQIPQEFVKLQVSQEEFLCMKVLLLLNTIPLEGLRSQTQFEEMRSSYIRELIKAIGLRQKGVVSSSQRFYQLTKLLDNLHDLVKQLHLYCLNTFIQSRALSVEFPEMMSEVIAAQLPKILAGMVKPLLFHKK
Nature of the experiment: Whole cell receptor binding (competition with 3H-R5020) in T-47D human breast carcinoma cells. As to conditions: for IC50: 50% displacement of 3H-R5020, T-47D cells, overnight incubation; for Relative Binding % Prog.: RBA relative to internal standard progesterone; for Relative Binding % Prog. / Relative Binding % R5020: ratio of concentrations causing 50% displacement, compared in the same assay; for Relative Binding % R5020: RBA relative to reference standard R5020 (promegestone). The procedure: The biological activity of the compounds of this invention was examined by means of whole cell receptor binding studies.
Receptor Binding. The affinity of the compounds for hormone receptors was determined by standard procedures similar to those that have been described, inter alia, by Wagner et al., Proc. Natl. Acad. Sci., 93, 8739-8744 (1996) for COS-1 cells. The human breast carcinoma (T-47D) cell line was used to assess RBA for progestin receptor. The cell line used was obtained from ATCC (American Type Culture Collection) and stored frozen at -135° C. until a week before the assays were conducted. The cells were thawed and cultured to achieve the desired cell number (5 to 7 days on average). They were maintained at 37° C. with growth media until they were 90-100% confluent, at which time they were recovered from the growth flasks and dispersed into individual wells of a 12-well tissue culture plate at a count of 4×10^5 cells in one mL medium per well. After 24 h the cells adhered to the bottom of the 12-well plates. At this point, the receptor binding assay procedure was initiated by the addition of test or standard compounds with 3H-R5020 (promegestone). After incubation overnight, medium was removed, the cells were washed and solubilized and radioactivity was measured by liquid scintillation spectrometry. Nonspecific binding was determined by incubation with excess of unlabeled R5020 and subtracted from total binding to calculate specific binding. The progesterone binding assay was conducted with several concentrations of the reference standard (promegestone, R-5020) and an internal standard (progesterone). These hormones were allowed to compete with tritiated competitor (3H-promegestone, 3H-R5020) to estimate relative binding. Test steroids were tested at three or more concentrations between 0.01 to 1000 nM. If 50% displacement of the 3H-R5020 from the receptor was not achieved by the unknown, higher or lower concentrations were tested, as needed, to obtain that goal. All compounds were tested in duplicate for at least two assays. The percentage of specifically bound 3H-R5020 for each concentration tested was calculated and binding curves were generated by plotting the percentage of specifically bound 3H-R-5020 versus the concentration of the competitor. The relative binding activity (RBA) of the test compounds, relative to the reference standard (R5020) as well as the internal standard, was determined from the ratio of concentrations causing 50% displacement for each unknown and standard and expressed as a percentage value. These concentrations were obtained by graphical interpolation of the plots.
A general note: Loss of bound radioactivity is the signal in a displacement assay; it reports binding, not function.

Experiment [2] relates to human progestin receptor. As to conditions: % the affinity of progesterone; Smith et al., J. Biol. Chem. 1974; cited from earlier work.

What is called IC50 is the concentration at which inhibition is half-maximal. Low readings indicate inhibition by little substance, high ones a need for much substance. As to `CN(C)c1ccc([C@H]2C[C@@]3(C)[C@@H](CC[C@@]34CCCS4)[C@@H]3CCC4=CC(=O)CCC4=C32)cc1` [Compound 12, 11β-[4-(N,N-Dimethylamino)phenyl]-spiro[estra-4,9-diene-17β,2'-thiolane]-3-one], in experiment [1], the half-maximal inhibitory concentration (IC50) is 2.8 nM, the “Relative Binding % Prog.” value amounted to 983% and the “Relative Binding % R5020” value is reported as 105%.

In the case of `CN(C)c1ccc([C@H]2C[C@@]3(C)[C@@H](CC[C@@]34CCC[S+]4[O-])[C@@H]3CCC4=CC(=O)CCC4=C32)cc1` (single isomer, unassigned) [Compound 21b, 11β-[4-(N,N-Dimethylamino)phenyl]-1'-oxo-spiro[estr-4,9-diene-17β,2'-thiolane]-3-one], in experiment [1], the IC50 was 6.6 nM, the “Relative Binding % Prog.” value worked out at 260% and the “Relative Binding % R5020” value was 43%.

`CN(C)c1ccc([C@H]2C[C@@]3(C)[C@@H](CC[C@@]34CCCS4(=O)=O)[C@@H]3CCC4=CC(=O)CCC4=C32)cc1` [Compound 24, 1',1'-Dioxo-11β-[4-(N,N-dimethylamino)phenyl]-spiro[estra-4,9-diene-17β,2'-thiolane]-3-one]: in experiment [1], the half-maximal inhibitory concentration (IC50) turned out to be 13 nM, the “Relative Binding % Prog.” value is 199% and the “Relative Binding % R5020” value was found to be 29%.

Take `CN(C)c1ccc([C@H]2C[C@@]3(C)[C@@H](CC[C@@]34CCC[S+]4[O-])[C@@H]3CCC4=CC(=O)CCC4=C32)cc1` (single isomer, unassigned) [Compound 21a, 11β-[4-(N,N-Dimethylamino)phenyl]-1'-oxo-spiro[estr-4,9-diene-17β,2'-thiolane]-3-one]: in experiment [1], the IC50 was 3.1 nM, the “Relative Binding % Prog.” value amounted to 825% and the “Relative Binding % R5020” value turned out to be 128%.

As to `CC(=O)c1ccc([C@H]2C[C@@]3(C)[C@@H](CC[C@@]34CCC[S+]4[O-])[C@@H]3CCC4=CC(=O)CCC4=C32)cc1` (single isomer, unassigned) [Compound 22a, 11β-(4-Acetylphenyl)-1'-oxo-spiro[estra-4,9-diene-17β,2'-thiolane]-3-one], in experiment [1], the concentration for half-maximal inhibition (IC50) was found to be 183 nM, the “Relative Binding % Prog.” value is listed as 19% and the “Relative Binding % R5020” value amounted to 2%.

On to `CSC1CCC2C3CCC4=CC(=O)CCC4(C)C3CCC12C` (stereo not shown) [17-thiomethylandrost-4-en-3-one], for which the “affinity relative to progesterone, binding to human progestin receptor” value in experiment [2] is on record as 25%.

Consider `CSc1ccc([C@H]2C[C@@]3(C)[C@@H](CC[C@@]34CCCS4)[C@@H]3CCC4=CC(=O)CCC4=C32)cc1` [Compound 14, 11β-[4-(Methylthio)phenyl]-spiro[estra-4,9-diene-17β,2'-thiolane]-3-one], for which, in experiment [1], the IC50 came out at 4.1 nM, the “Relative Binding % Prog.” value is reported as 651% and the “Relative Binding % R5020” value worked out at 49%.

As to `CC(=O)c1ccc([C@H]2C[C@@]3(C)[C@@H](CC[C@@]34CCC[S+]4[O-])[C@@H]3CCC4=CC(=O)CCC4=C32)cc1` (single isomer, unassigned) [Compound 22b, 11β-(4-Acetylphenyl)-1'-oxo-spiro[estra-4,9-diene-17β,2'-thiolane]-3-one], in experiment [1], the IC50 amounted to 135 nM, the “Relative Binding % Prog.” value is 25% and the “Relative Binding % R5020” value is listed as 2%.

The record behind these values is patent publication US6043235A, “11β-aryl-17, 17-spirothiolane-substituted steroids” (Research Triangle Institute, priority 1999, dated 2000).
